Experimental data: article PMC7967160, “Synthesis and Antiviral Evaluation of (1,4-Disubstituted-1,2,3-Triazol)-(E)-2-Methyl-but-2-Enyl Nucleoside Phosphonate Prodrugs” (Molecules, 2021)

Key:
[1] = system: HIV-1 LAI; experiment: HIV assay in human PBM cells infected with HIV-1 LAI, RT quantification; format: cell-based; details: for inhibition at 10 µM: Human immunodeficiency virus 1, PBMC, PBM cells, HIV-1 LAI
Method: The assay was performed as described by Schinazi et al. with minor modifications. […] The supernatants were harvested, and the HIV-1 RT was quantified.

[2] = system: HBV; experiment: HBV assay in Huh7 cells transfected with pCI_HBVpg1820, intracapsid viral DNA by real-time PCR; format: cell-based, hepatitis B virus (HBV); details: for inhibition at 10 µM: Hepatitis B virus, Huh-7, 96 h
Method: In Huh7 cells: antiviral activity against HBV in cell culture was measured as previously described. Briefly, Huh7 cells were transfected with plasmid pCI_HBVpg1820 containing 1.1 unit of HBV genome under the control of a human cytomegalovirus (CMV) promoter. The drugs were stored at 1000× in DMSO at −20 °C. For each experiment, the drugs were diluted in DMEM cell culture medium (Thermo Fisher Scientific, Artenay, France) to a final concentration of 10 μM. All drugs were tested in triplicate in two independent experiments. After 4 days of culture, intracapsid viral DNA was quantified by duplex real-time PCR, using primers described elsewhere, on a LightCycler 480 II apparatus (Roche Diagnostics France, Meylan, France) using TaqMan Universal PCR Mastermix II without UNG (Thermo Fisher Scientific, Artenay, France). Cells were quantified using primers by real-time PCR, using primers HPRT1_F (5′-[…]) and HPRT1_R (5′-[…]), on a LightCycler 480 II apparatus (Roche) using a LightCycler® 480 SYBR Green I Master (Roche Diagnostics France, Meylan, France). Cycling reactions were performed with the following parameters: 5 min at 95 °C, followed by 45 cycles of 10 s at 95 °C, 15 s at 60 °C, 10 s at 72 °C. The inhibition of HBV replication (%) and cell culture viability (%) were quantified using the following formulas. Inhibition of HBV replication (%)=1− HBV DNA copy numberDrug/HBV DNA copy numberCell culture medium Cell viability (%)= HPRT1 DNA copy numberDrug/HPRT1 DNA copy numberCell culture medium

[3] = system: HBV; experiment: HBV assay in HepAD38 cells, real-time PCR for HBV DNA in supernatant; format: cell-based; details: Hepatitis B virus, 168 h, 7 days
Method: In HepAD38 cells were seeded at 50,000 cells/well in collagen-coated 96-well plates. Test compounds or 2′,3′-didéoxy-3′-thiacytidin (3TC) (control) were added to HepAD38 cells to a final concentration of 10 μM.
Real-Time PCR for HBV DNA. The experiment lasted 7 days. On day 7, total DNA was purified from the supernatant using a commercially available kit (DNeasy 96 Blood & Tissue kit, Qiagen). The HBV DNA was amplified in a real-time PCR assay using a LightCycler 480 (Roche) as described elsewhere. All samples were tested in duplicate in two to three independent experiments. Analysis: The concentration of compound that inhibited HBV DNA replication by 50% (EC50) was determined by linear regression.

[4] = in vitro; format: cell-based; details: human; PBM cells; read-out: MTS Cytotoxicity (IC50, μM) PBM
Method: (§1) Assays were performed in human peripheral blood mononuclear (PBM) and human liver (HepG2) cells via MTS assay using the CellTiter 96® Non-Radioactive Cell Proliferation (Promega) kit as previously described^3. Cytotoxicity was expressed as the concentration of test compounds that inhibited cell proliferation by 50% (IC50) and calculated using the Chou and Talalay method.

[5] = Cytotoxicity MTS assay in HepG2 cells; format: cell-based; details: human
Method: as §1

[6] = system: SARS-CoV-2 strain BavPat1; experiment: SARS-CoV-2 assay in Vero E6 cells (CellTiter-Blue); details: 10 μM
[7] = Cell culture viability in the Huh7 HBV assay (HPRT1 DNA copy number); details: human
[8] = read-out: HBV % Inhibition Huh7, 10 μM, Huh7 cells, 4 days
[9] = 10 μM, Huh7 cells, 4 days, read-out: HBV % Inhibition Huh7

Structure (SMILES)	EC50 ([1]; positive control, data not shown, read-out: EC50 anti-HIV) [µM]	HBV % Inhibition Huh7 ([2]; 10 μM, Huh7 cells, 4 days) [%]	inhibition at 10 µM [2, 8] [%]	inhibition at 10 µM [3] [%]	inhibition at 10 µM [1] [%]	IC50 [4] [µM]	IC50 [5] [µM]	SARS-CoV-2 % Inhibition Vero E6 [6] [%]	viability at 4 days, 10 µM [7] [%]	inhibition at 10 µM [2, 9] [%]
Cc1cn([C@H]2C[C@H](N=[N+]=[N-])[C@@H](CO)O2)c(=O)[nH]c1=O [AZT, reference compound]	0.008	–	–	–	–	–	–	–	–	–
CCCc1ccc(-c2cn(C/C(C)=C/CP(=O)(OCOC(=O)OC(C)C)OCOC(=O)OC(C)C)nn2)cc1 [Compound 11a, [[(E)-4-[4-(4-Propylphenyl)triazol-1-yl]-3-methyl-but-2-enyl]-(isopropoxycarbonyloxymethoxy)phosphoryl]oxymethyl isopropyl carbonate]	–	51	> 40	19.6	< 1	50.2	18.3	<1	96	–
CCCCc1ccc(-c2cn(C/C(C)=C/CP(=O)(OCOC(=O)OC(C)C)OCOC(=O)OC(C)C)nn2)cc1 [Compound 11b, [[(E)-4-[4-(4-Butylphenyl)triazol-1-yl]-3-methyl-but-2-enyl]-(isopropoxycarbonyloxymethoxy)phosphoryl]oxymethyl isopropyl carbonate]	–	–	–	14.4	< 1	19.4	16.2	<1	88	25
CCCCCc1ccc(-c2cn(C/C(C)=C/CP(=O)(OCOC(=O)OC(C)C)OCOC(=O)OC(C)C)nn2)cc1 [Compound 11c, [[(E)-4-[4-(4-Pentylphenyl)triazol-1-yl]-3-methyl-but-2-enyl]-(isopropoxycarbonyloxymethoxy)phosphoryl]oxymethyl isopropyl carbonate]	–	42	> 40	< 1	44.4	47.8	51.8	<1	89	–
CCCCCCc1ccc(-c2cn(C/C(C)=C/CP(=O)(OCOC(=O)OC(C)C)OCOC(=O)OC(C)C)nn2)cc1 [Compound 11d, [[(E)-4-[4-(4-Hexylphenyl)triazol-1-yl]-3-methyl-but-2-enyl]-(isopropoxycarbonyloxymethoxy)phosphoryl]oxymethyl isopropyl carbonate]	–	–	–	38.8	41.8	23.7	59.6	<1	100	39
CCCCCCCc1ccc(-c2cn(C/C(C)=C/CP(=O)(OCOC(=O)OC(C)C)OCOC(=O)OC(C)C)nn2)cc1 [Compound 11e, [[(E)-4-[4-(4-Heptylphenyl)triazol-1-yl]-3-methyl-but-2-enyl]-(isopropoxycarbonyloxymethoxy)phosphoryl]oxymethyl isopropyl carbonate]	–	50	> 40	33.5	29.9	9.2	90.8	<1	95	–
C/C(=C\CP(=O)(OCOC(=O)OC(C)C)OCOC(=O)OC(C)C)Cn1cc(C2CC2)nn1 [Compound 11f, [[(E)-4-(4-Cyclopropyltriazol-1-yl)-3-methyl-but-2-enyl]-(isopropoxycarbonyloxymethoxy)phosphoryl]oxymethyl isopropyl carbonate]	–	–	–	36.3	30.7	25.5	> 100	<1	100	< 1
C/C(=C\CP(=O)(OCOC(=O)OC(C)C)OCOC(=O)OC(C)C)Cn1cc(C(C)(C)C)nn1 [Compound 11g, [[(E)-4-(4-tert-Butyltriazol-1-yl)-3-methyl-but-2-enyl]-(isopropoxycarbonyloxymethoxy)phosphoryl]oxymethyl isopropyl carbonate]	–	–	–	17.3	12.3	28.3	> 100	<1	79	10
C/C(=C\CP(=O)(OCOC(=O)OC(C)C)OCOC(=O)OC(C)C)Cn1cc(CO)nn1 [Compound 11h, [[(E)-4-[4-(Hydroxymethyl)triazol-1-yl]-3-methyl-but-2-enyl]-(isopropoxycarbonyloxymethoxy)phosphoryl]oxymethyl isopropyl carbonate]	–	–	–	15.1	< 1	76.4	> 100	12	100	28
C/C(=C\CP(=O)(OCOC(=O)OC(C)C)OCOC(=O)OC(C)C)Cn1cc(C=O)nn1 [Compound 11i, [[(E)-4-(4-Formyltriazol-1-yl)-3-methyl-but-2-enyl]-(isopropoxycarbonyloxymethoxy)phosphoryl]oxymethyl isopropyl carbonate]	–	–	–	6.1	28.4	75.1	> 100	<1	95	33
C/C(=C\CP(=O)(OCOC(=O)OC(C)C)OCOC(=O)OC(C)C)Cn1cc(C(=O)O)nn1 [Compound 11m, 1-[(E)-4-[Bis(isopropoxycarbonyloxymethoxy)phosphoryl]-2-methyl-but-2-enyl]triazole-4-carboxylic acid]	–	–	–	41.3	12.9	–	> 100	<1	57	12
CCCCCCCCCCCCCCCCOCCCOP(=O)(C/C=C(\C)Cn1cc(-c2ccc(CCC)cc2)nn1)OCOC(=O)OC(C)C (stereo not shown) [Compound 15a, [3-Hexadecyloxypropoxy-[(E)-3-methyl-4-[4-(4-propylphenyl]triazol-1-yl]but-2-enyl]phosphoryl]oxymethyl isopropyl carbonate]	–	–	–	–	–	–	–	<1	95	< 1
CCCCCCCCCCCCCCCCOCCCOP(=O)(C/C=C(\C)Cn1cc(-c2ccc(CCCCCCC)cc2)nn1)OCOC(=O)OC(C)C (stereo not shown) [Compound 15e, [3-Hexadecyloxypropoxy-[(E)-3-methyl-4-[4-(heptylphenyl)triazol-1-yl]but-2-enyl]phosphoryl]oxymethyl isopropyl carbonate]	–	–	–	–	–	–	–	<1	100	8
CCCCCCCCCCCCCCCCOCCCOP(=O)(C/C=C(\C)Cn1cc(-c2ccc([N+](=O)[O-])cc2)nn1)OCOC(=O)OC(C)C (stereo not shown) [Compound 15l, [3-Hexadecyloxypropoxy-[(E)-3-methyl-4-[4-(nitrophenyl)triazol-1-yl]but-2-enyl]phosphoryl]oxymethyl isopropyl carbonate]	–	–	–	–	–	–	–	<1	100	12
CCC(CC)COC(=O)[C@H](C)N[P@](=O)(OC[C@H]1O[C@@](C#N)(c2ccc3c(N)ncnn23)[C@H](O)[C@@H]1O)Oc1ccccc1 [Remdesivir, reference compound]	–	–	–	–	–	–	–	100	–	–
C[C@@H]1C[C@@H]([C@H](O)CC2CC(=O)NC(=O)C2)C(=O)[C@@H](C)C1 [cycloheximide, reference compound]	–	–	–	–	–	1	1.5	–	–	–
